ChEMBL document CHEMBL5236666, “Investigation of mitochondrial targeting ability of sydnones and sydnonimines and mitochondria-targeted delivery of celecoxib” (Bioorg Med Chem Lett, 2023)

Tests used:
[1] = tested on: HepG2; assay: Cytotoxicity against human HepG2 cells assessed as inhibition of cell proliferation; type: functional, cell-based
[2] = tested on: HepG2; assay: Cytotoxicity against human HepG2 cells assessed as inhibition of cell proliferation in presence of 100 uM of DIBAC; type: functional, cell-based
[3] = tested on: HeLa; assay: Cytotoxicity against human HeLa cells assessed as inhibition of cell proliferation in presence of 100 uM of DIBAC; type: functional, cell-based
[4] = tested on: HeLa; assay: Cytotoxicity against human HeLa cells assessed as inhibition of cell proliferation; type: functional, cell-based
[5] = Drug uptake in mitochondria of human HeLa cells incubated for 30 mins; type: ADME; settings: 0.5 h
[6] = Drug uptake in human HeLa cells assessed as increase in colocalization by measuring fluorescence intensity at 5 uM incubated for 30 mins; type: ADME, cell-based; settings: 0.5 h

Drug uptake [5]	SMILES	IC50 [1] [µM]	IC50 [4] [µM]	also measured
–	CCOC(=O)c1ccc(-[n+]2cc([N-]S(=O)(=O)c3ccc(-n4nc(C(F)(F)F)cc4-c4ccc(C)cc4)cc3)on2)cc1	> 100	> 100	IC50 [2]: 66.2 µM; IC50 [3]: 85.3 µM
–	Cc1ccc(-c2cc(C(F)(F)F)nn2-c2ccc(S(N)(=O)=O)cc2)cc1 [CELECOXIB]	43.6	32.7	–
Not Active	CC1=CC(C)=[N+]2C1=Cc1ccc(CCC(=O)NCCCNC(=O)c3ccc(-[n+]4noc(O)c4-c4ccccc4)cc3)n1[B-]2(F)F	–	–	–
–	O=C(NCCCNC(=O)c1ccc(-[n+]2cc([O-])on2)cc1)OCC1C[C@@H]2C=C[C@H]1C2 (some centres undefined)	–	–	Drug uptake [6]: Active
Active	CC1=CC(C)=[N+]2C1=Cc1ccc(CCC(=O)NCCCNC(=O)c3ccc(-[n+]4cc(O)on4)cc3)n1[B-]2(F)F	–	–	–
